Experimental data taken from BindingDB's records for doi:10.1016/j.bmcl.2007.12.029 (Merck Research Laboratories, 2008).

Assay: Antagonist activity at CCR2 receptor in human monocytes assessed as inhibition of MCP1-mediated chemotaxis

IC50 [nM]	Compound
2	CC(C)(O)[C@]1(C(=O)NCc2cc(C(F)(F)F)cc(C(F)(F)F)c2)CC[C@@H](N2CCC(c3cncnc3)CC2)C1 [(1S,3R)-N-(3,5-bis(trifluoromethyl)benzyl)-1-(2-hydroxypropan-2-yl)-3-(4-(pyrimidin-5-yl)piperidin-1-yl)cyclopentanecarboxamide]
2	CC(C)[C@]1(C(=O)NCc2cc(C(F)(F)F)cc(C(F)(F)F)c2)CC[C@@H](N2CCC(c3cncnc3)CC2)C1 [N-(3,5-bis(trifluoromethyl)benzyl)-1-isopropyl-3-(4-(pyrimidin-5-yl)piperidin-1-yl)cyclopentanecarboxamide]
